Patent US6780839B2, “Use of secretin-receptor ligands in treatment of cystic fibrosis (CF) and chronic obstructive pulmonary disease (COPD)” (Pharmagene Laboratories Ltd., priority 2000, dated 2004)

Experiments:
[1] = tested on: primary human tertiary bronchial epithelial cells; experiment: Cl- efflux by MQAE fluorescence; format: cell-based; conditions: FIG. 8
Procedure: Molecular Probes). In brief, primary human, tertiary bronchial epithelial cells were isolated as previously described and cultured in a 96 well plate. On reaching confluency, cells were loaded overnight with 4 mM MQAE. Cells were washed in a chloride containing HEPES buffer, before passive Cl^− efflux was initiated by the addition of a Cl^− free buffer. […] 100 nM Secretin mediated Cl^− efflux was inhibited by the non-selective Cl^− blocker NPPB (open circles).

[2] = tested on: human tertiary bronchus from non-CF donors; experiment: Short circuit current across the bronchial wall, modified Ussing chamber; format: cell-based
Excerpt: In brief, non-branching regions of the human tertiary bronchus from non-CF donors were dissected, cut longitudinally and mounted in between the two compartments of a modified Ussing chamber to measure the short circuit current across the bronchial wall. Both luminal (airway) and basolateral membranes were bathed in oxygenated Krebs extracellular solution and the tissue voltage clamped to zero to allow changes in short circuit current in response to secretin to be measured. Amiloride at a concentration of 10 μM was initially added to the luminal membrane (FIG. 5, point a)(as described by those in the art) to partially block the predominant sodium ion current and unmask underlying ionic currents. On attainment of a stable base line, 3 μM human secretin (supplied by Sigma, catalogue number S714) was added to the luminal membrane (FIG. 5, point b).

[3] = tested on: primary human tertiary bronchial epithelial cells derived from non-CF donors; experiment: Short circuit current in confluent tertiary bronchial epithelial cell monolayers, modified Ussing chamber; format: cell-based
Excerpt: Functional effects of the secretin receptor were probed in epithelial cells derived from the human tertiary bronchus. In brief, tertiary bronchial epithelial were isolated by overnight protease digestion and then cultured until confluency on Snapwell (Costar) permeable supports. The supports were mounted in a modified Ussing chamber, and both luminal and basolateral membranes were bathed in oxygenated Krebs extracellular solution. The cells were voltage clamped to zero to allow changes in short circuit current Isc in response to secretin to be measured. As previously described, 10 μM amiloride was initially added to the luminal membrane (FIG. 6, point a)followed by the addition of 100 μM secretin to the luminal membrane (FIG. 6, point b). A time matched, amiloride-treated control is denoted by the thin trace.

[4] = tested on: human CF tertiary bronchus; experiment: Short circuit current in CF bronchus, modified Ussing chamber; format: cell-based
Procedure: The experiment described above was repeated using human CF tertiary bronchus, using 1 μM secretin.

[5] = tested on: rat cholangiocytes; conditions: by translocation of AQP-1 water channels; cited from earlier work
[6] = tested on: rats; conditions: injected intracerebroventricularly; cited from earlier work
[7] = 10 μM ATP or UTP on apical membrane, FIG. 5 point c

O=C(O)c1cc([N+](=O)[O-])ccc1NCCCc1ccccc1 [NPPB, 5-nitro-2-(3-phenylpropyl-amino)benzoic acid]
effect on secretin mediated changes in MQAE fluorescence (Cl- efflux) ([1]; 100 μM NPPB with 100 nM secretin): abolished

secretin
ionic movement (short circuit current) ([2]; 3 μM human secretin on luminal membrane after 10 μM amiloride, FIG. 5): stimulate ionic movement in a manner consistent with the movement of a negatively charged ion | ionic movement (short circuit current Isc) ([3]; 100 μM secretin on luminal membrane after 10 μM amiloride, FIG. 6): stimulated ionic movement in a manner consistent with the movement of a negatively charged ion | ionic movement (short circuit current) ([4]; 1 μM secretin after amiloride, FIG. 7 point b): stimulates ionic movement of a negatively charged ion | Cl- efflux (changes in MQAE fluorescence) ([1]; nanomolar concentrations of secretin (12.5 nM, 100 nM), Cl- free buffer): stimulated Cl^− efflux | concentration dependent increase in osmotic H2O permeability [5]: 60% | defecation [6]: significantly increased defecation | novel-object approaches [6]: decreased novel-object approaches | stereotypic behaviour [6]: no significant effects on stereotypic behaviour

COc1ccc(Cl)cc1C(=O)NCCc1ccc(S(=O)(=O)NC(=O)NC2CCCCC2)cc1 [glibenclamide]
suppression of secretin mediated ionic movement ([3]; 500 μM glibenclamide (CFTR inhibitor)): failed to suppress secretin mediated ionic movement

O=c1ccn([C@@H]2O[C@H](COP(=O)(O)OP(=O)(O)OP(=O)(O)O)[C@@H](O)[C@H]2O)c(=O)[nH]1 [UTP]
ionic movement (short circuit current) [2, 7]: stimulate a similar ionic movement of similar magnitude

N=C(N)NC(=O)c1nc(Cl)c(N)nc1N [amiloride]
effect on underlying sodium current ([4]; amiloride, FIG. 7 point a): blocks the underlying sodium current

Nc1ncnc2c1ncn2[C@@H]1O[C@H](COP(=O)(O)OP(=O)(O)OP(=O)(O)O)[C@@H](O)[C@H]1O [ATP]
ionic movement (short circuit current) [2, 7]: stimulate a similar ionic movement of similar magnitude
